Test results published in PMC5218480 (PLoS ONE, 2017).

Test system: MV-4-11 cells
Test: Gene expression microarray analysis (Affymetrix PrimeView) and GSEA
Format: cell-based, human
Parameters: RFU PODN (11730768_x_at) / Fold change /veh PODN (11730768_x_at) / RFU LINC00158 (11744669_a_at) / Fold change /veh LINC00158 (11744669_a_at) / RFU DUSP10 (11751237_a_at) / Fold change /veh DUSP10 (11751237_a_at) / RFU ID3 (11757404_x_at) / Fold change /veh ID3 (11757404_x_at) / RFU PLEKHG5 (11737974_s_at) / Fold change /veh PLEKHG5 (11737974_s_at) / RFU LRRC4B (11730491_at) / Fold change /veh LRRC4B (11730491_at) / RFU GIMAP4 (11747438_a_at) / Fold change /veh GIMAP4 (11747438_a_at) / RFU KRT8 (11758183_x_at) / Fold change /veh KRT8 (11758183_x_at) / RFU CNN1 (11734310_a_at) / Fold change /veh CNN1 (11734310_a_at) / RFU VPS37D (11726825_at) / Fold change /veh VPS37D (11726825_at) / RFU C10orf10 (11716522_x_at) / Fold change /veh C10orf10 (11716522_x_at) / RFU KIR2DL2 /// KIR2DL4 /// KIR2DL5A /// KIR2DL5B /// KIR2DS1 /// KIR2DS2 /// KIR2DS3 /// KIR2DS4 /// KIR3DL3 /// KIR3DL3 /// KIR3DS1 (11738374_at) / Fold change /veh KIR2DL2 /// KIR2DL4 /// KIR2DL5A /// KIR2DL5B /// KIR2DS1 /// KIR2DS2 /// KIR2DS3 /// KIR2DS4 /// KIR3DL3 /// KIR3DL3 /// KIR3DS1 (11738374_at) / RFU C1QL1 (11718748_at) / Fold change /veh C1QL1 (11718748_at) / RFU TMPRSS4 (11747572_a_at) / Fold change /veh TMPRSS4 (11747572_a_at) / RFU HAMP (11756126_x_at) / Fold change /veh HAMP (11756126_x_at) / RFU RNFT2 (11725882_a_at) / Fold change /veh RNFT2 (11725882_a_at) / RFU NR4A2 (11747474_a_at) / Fold change /veh NR4A2 (11747474_a_at) / RFU ABCC12 (11746883_a_at) / Fold change /veh ABCC12 (11746883_a_at) / RFU TMEM136 (11760407_x_at) / Fold change /veh TMEM136 (11760407_x_at) / RFU CLDN22 /// WWC2 (11732394_at) / Fold change /veh CLDN22 /// WWC2 (11732394_at) / RFU HLA-DPB1 (11760878_x_at) / Fold change /veh HLA-DPB1 (11760878_x_at) / RFU SPINT1 (11716480_a_at) / Fold change /veh SPINT1 (11716480_a_at) / RFU GAP43 (11754022_s_at) / Fold change /veh GAP43 (11754022_s_at) / RFU A4GNT (11735810_at) / Fold change /veh A4GNT (11735810_at) / RFU PRB3 (11715151_x_at) / Fold change /veh PRB3 (11715151_x_at) / RFU TUBB4B (11761932_at) / Fold change /veh TUBB4B (11761932_at) / RFU CAPN14 (11732068_a_at) / Fold change /veh CAPN14 (11732068_a_at) / RFU TMCC2 (11721928_a_at) / Fold change /veh TMCC2 (11721928_a_at) / RFU IRGQ (11745062_a_at) / Fold change /veh IRGQ (11745062_a_at) / RFU FAM174B (11720279_a_at) / Fold change /veh FAM174B (11720279_a_at) / RFU TMPRSS4 (11748680_a_at) / Fold change /veh TMPRSS4 (11748680_a_at) / RFU FAM212B (11763350_a_at) / Fold change /veh FAM212B (11763350_a_at) / RFU PLEKHG5 (11743358_a_at) / Fold change /veh PLEKHG5 (11743358_a_at) / RFU ZSCAN30 (11745921_a_at) / Fold change /veh ZSCAN30 (11745921_a_at) / RFU CMKLR1 (11741424_a_at) / Fold change /veh CMKLR1 (11741424_a_at) / RFU LOC101060620 /// MAPK8IP1 (11723275_at) / Fold change /veh LOC101060620 /// MAPK8IP1 (11723275_at) / RFU SPTSSB (11747773_x_at) / Fold change /veh SPTSSB (11747773_x_at) / RFU PRSS12 (11739890_at) / Fold change /veh PRSS12 (11739890_at) / RFU BIN1 (11741810_x_at) / Fold change /veh BIN1 (11741810_x_at) / RFU WNT11 (11732464_a_at) / Fold change /veh WNT11 (11732464_a_at) / RFU C10orf10 (11716521_a_at) / Fold change /veh C10orf10 (11716521_a_at) / RFU C5orf56 (11738089_at) / Fold change /veh C5orf56 (11738089_at) / RFU CYB561 (11721691_x_at) / Fold change /veh CYB561 (11721691_x_at) / RFU ANKRD19P (11752326_a_at) / Fold change /veh ANKRD19P (11752326_a_at) / RFU OR2T12 /// OR2T33 /// OR2T8 (11738714_s_at) / Fold change /veh OR2T12 /// OR2T33 /// OR2T8 (11738714_s_at) / RFU VCAN (11748164_a_at) / Fold change /veh VCAN (11748164_a_at) / RFU JSRP1 (11732532_at) / Fold change /veh JSRP1 (11732532_at) / RFU KRTAP10-11 (11738290_x_at) / Fold change /veh KRTAP10-11 (11738290_x_at) / RFU MYO3A (11730013_a_at) / Fold change /veh MYO3A (11730013_a_at) / RFU EBF3 (11725865_a_at) / Fold change /veh EBF3 (11725865_a_at) / RFU CAMK2N1 (11719241_x_at) / Fold change /veh CAMK2N1 (11719241_x_at) / RFU C5orf56 (11738088_a_at) / Fold change /veh C5orf56 (11738088_a_at) / RFU OLFML3 (11715873_a_at) / Fold change /veh OLFML3 (11715873_a_at) / RFU LOC100653217 /// NTM (11731650_a_at) / Fold change /veh LOC100653217 /// NTM (11731650_a_at) / RFU MAPK11 (11762145_a_at) / Fold change /veh MAPK11 (11762145_a_at) / RFU FIZ1 (11724087_x_at) / Fold change /veh FIZ1 (11724087_x_at) / RFU OASL (11726364_x_at) / Fold change /veh OASL (11726364_x_at) / RFU SOX15 (11748057_x_at) / Fold change /veh SOX15 (11748057_x_at) / RFU CD79A (11719716_a_at) / Fold change /veh CD79A (11719716_a_at) / RFU HIST1H1D (11736915_at) / Fold change /veh HIST1H1D (11736915_at) / RFU CASKIN2 (11723855_a_at) / Fold change /veh CASKIN2 (11723855_a_at) / RFU LOC730098 (11760151_x_at) / Fold change /veh LOC730098 (11760151_x_at) / RFU OR4N2 (11742367_at) / Fold change /veh OR4N2 (11742367_at) / RFU PRRT2 (11749266_a_at) / Fold change /veh PRRT2 (11749266_a_at) / RFU SNX32 (11753110_a_at) / Fold change /veh SNX32 (11753110_a_at) / RFU CDHR5 (11726645_a_at) / Fold change /veh CDHR5 (11726645_a_at) / RFU RCAN1 (11760418_a_at) / Fold change /veh RCAN1 (11760418_a_at) / RFU FAM167A (11723789_a_at) / Fold change /veh FAM167A (11723789_a_at) / RFU FAM26E (11764081_at) / Fold change /veh FAM26E (11764081_at) / RFU ISYNA1 (11749810_s_at) / Fold change /veh ISYNA1 (11749810_s_at) / RFU ACY1 (11761880_at) / Fold change /veh ACY1 (11761880_at) / RFU 11764098_at / Fold change /veh 11764098_at / RFU SAMD14 (11745864_x_at) / Fold change /veh SAMD14 (11745864_x_at) / RFU NPB (11741838_a_at) / Fold change /veh NPB (11741838_a_at) / RFU TMPRSS6 (11731388_a_at) / Fold change /veh TMPRSS6 (11731388_a_at) / RFU KRTAP10-2 (11738614_at) / Fold change /veh KRTAP10-2 (11738614_at) / RFU ARHGAP8 /// PRR5-ARHGAP8 (11727945_x_at) / Fold change /veh ARHGAP8 /// PRR5-ARHGAP8 (11727945_x_at) / RFU KRTAP5-7 /// NADSYN1 (11734609_at) / Fold change /veh KRTAP5-7 /// NADSYN1 (11734609_at) / RFU RASL12 (11751679_a_at) / Fold change /veh RASL12 (11751679_a_at) / RFU CDKN2B (11736163_a_at) / Fold change /veh CDKN2B (11736163_a_at) / RFU PRF1 (11729649_at) / Fold change /veh PRF1 (11729649_at) / RFU, ZNF638 /// ZNF638-IT1 / Fold change vs veh, ZNF638 /// ZNF638-IT1 / RFU, PANK3 / Fold change vs veh, PANK3 / RFU, SH3YL1 / Fold change vs veh, SH3YL1 / RFU, ZEB2 / Fold change vs veh, ZEB2 / RFU, NRIP1 / Fold change vs veh, NRIP1 / RFU, PTTG1IP / Fold change vs veh, PTTG1IP / RFU, CAPN2 / Fold change vs veh, CAPN2 / RFU, MED14 / Fold change vs veh, MED14 / RFU, SNORA58 / Fold change vs veh, SNORA58 / RFU, C1orf63 / Fold change vs veh, C1orf63 / RFU, LRRFIP1 / Fold change vs veh, LRRFIP1 / RFU, NDUFAF7 / Fold change vs veh, NDUFAF7 / RFU, SLC12A2 / Fold change vs veh, SLC12A2 / RFU, IBTK / Fold change vs veh, IBTK / RFU, ESF1 / Fold change vs veh, ESF1 / Fold change vs veh, TMEM50B / RFU, TAOK1 / Fold change vs veh, TAOK1 / RFU, ACBD3 / Fold change vs veh, ACBD3 / RFU, TMA16 / Fold change vs veh, TMA16 / RFU, RWDD3 / Fold change vs veh, RWDD3 / RFU, BCAT1 / Fold change vs veh, BCAT1 / RFU, EDEM3 / Fold change vs veh, EDEM3 / RFU, TMEM33 / Fold change vs veh, TMEM33 / RFU, WDR75 / Fold change vs veh, WDR75 / RFU, AHCTF1 / Fold change vs veh, AHCTF1 / RFU, TFRC / Fold change vs veh, TFRC / RFU, ZDHHC17 / Fold change vs veh, ZDHHC17 / RFU, NOM1 / Fold change vs veh, NOM1 / RFU, ARL8B / Fold change vs veh, ARL8B / RFU, ZBTB11 / Fold change vs veh, ZBTB11 / RFU, TAMM41 / Fold change vs veh, TAMM41 / RFU, KIAA1704 /// LOC100996395 / Fold change vs veh, KIAA1704 /// LOC100996395 / RFU, ING1 / Fold change vs veh, ING1 / RFU, TRMT61B / Fold change vs veh, TRMT61B / RFU, FUBP3 / Fold change vs veh, FUBP3 / RFU, TP53 / Fold change vs veh, TP53 / RFU, TNKS2 / Fold change vs veh, TNKS2 / RFU, ZFP14 / Fold change vs veh, ZFP14 / RFU, ACTR2 / Fold change vs veh, ACTR2 / RFU, PPP3R1 / Fold change vs veh, PPP3R1 / RFU, PIK3R1 / Fold change vs veh, PIK3R1 / RFU, HNRNPA1 / Fold change vs veh, HNRNPA1 / RFU, RNF170 / Fold change vs veh, RNF170 / RFU, ZNF28 / Fold change vs veh, ZNF28 / RFU, RNGTT / Fold change vs veh, RNGTT / RFU, OGT / Fold change vs veh, OGT / RFU, BRD1 / Fold change vs veh, BRD1 / RFU, MARS / Fold change vs veh, MARS / RFU, ZNF655 / Fold change vs veh, ZNF655 / RFU, FAHD1 / Fold change vs veh, FAHD1 / RFU, BDP1 / Fold change vs veh, BDP1 / RFU, LRRCC1 / Fold change vs veh, LRRCC1 / RFU, ARID1A / Fold change vs veh, ARID1A / RFU, ZNF146 / Fold change vs veh, ZNF146 / RFU, ZNF330 / Fold change vs veh, ZNF330 / RFU, GPN3 / Fold change vs veh, GPN3 / RFU, C9orf123 / Fold change vs veh, C9orf123 / RFU, N4BP2L2 / Fold change vs veh, N4BP2L2 / RFU, ARFIP1 / Fold change vs veh, ARFIP1 / RFU, FAM179B / Fold change vs veh, FAM179B / RFU, BCL10 / Fold change vs veh, BCL10 / RFU, UHRF1BP1L / Fold change vs veh, UHRF1BP1L / RFU, BET1 / Fold change vs veh, BET1 / RFU, CNOT2 / Fold change vs veh, CNOT2 / RFU, ZNF268 / Fold change vs veh, ZNF268 / Fold change vs veh, ZNF507 / RFU, DGCR2 / Fold change vs veh, DGCR2 / RFU, WDSUB1 / Fold change vs veh, WDSUB1 / Fold change vs veh, HSP90B1 /// MIR3652 / RFU, ADSS / Fold change vs veh, ADSS / RFU, GK / Fold change vs veh, GK / RFU, ZNF148 / Fold change vs veh, ZNF148 / RFU, TAF9 / Fold change vs veh, TAF9 / RFU, SLC1A5 / Fold change vs veh, SLC1A5 / RFU, SLMO2 / Fold change vs veh, SLMO2 / RFU, ABCC4 / Fold change vs veh, ABCC4 / RFU, LOC101060439 /// RAP1B / Fold change vs veh, LOC101060439 /// RAP1B / RFU, RFX7 / Fold change vs veh, RFX7 / RFU, GTPBP10 / Fold change vs veh, GTPBP10 / RFU, CNEP1R1 / Fold change vs veh, CNEP1R1 / RFU, BIVM-ERCC5 /// ERCC5 / Fold change vs veh, BIVM-ERCC5 /// ERCC5 / RFU, ILF3 / Fold change vs veh, ILF3 / RFU 11762660_at / Fold change /veh 11762660_at / RFU VCAN (11757783_s_at) / Fold change /veh VCAN (11757783_s_at) / RFU DDX43 (11728927_at) / Fold change /veh DDX43 (11728927_at) / RFU KRT8 (11758188_x_at) / Fold change /veh KRT8 (11758188_x_at) / RFU NKD1 (11759106_at) / Fold change /veh NKD1 (11759106_at) / RFU SRD5A1 (11742802_a_at) / Fold change /veh SRD5A1 (11742802_a_at) / RFU TPSAB1 /// TPSB2 (11721975_s_at) / Fold change /veh TPSAB1 /// TPSB2 (11721975_s_at) / RFU GSTM3 (11746129_a_at) / Fold change /veh GSTM3 (11746129_a_at) / RFU IL23R (11737362_x_at) / Fold change /veh IL23R (11737362_x_at) / RFU TMEM51 (11727254_a_at) / Fold change /veh TMEM51 (11727254_a_at) / RFU PIWIL2 (11732686_x_at) / Fold change /veh PIWIL2 (11732686_x_at) / RFU ORM1 (11744905_x_at) / Fold change /veh ORM1 (11744905_x_at) / RFU CCDC152 (11743942_at) / Fold change /veh CCDC152 (11743942_at) / RFU ECM1 (11717891_a_at) / Fold change /veh ECM1 (11717891_a_at) / RFU IL23R (11748794_a_at) / Fold change /veh IL23R (11748794_a_at) / RFU TNFAIP8L3 (11732012_x_at) / Fold change /veh TNFAIP8L3 (11732012_x_at) / RFU MBOAT4 (11741988_at) / Fold change /veh MBOAT4 (11741988_at) / RFU 11764193_at / Fold change /veh 11764193_at / RFU TMEM53 (11763286_at) / Fold change /veh TMEM53 (11763286_at) / RFU MAGEB2 (11727129_at) / Fold change /veh MAGEB2 (11727129_at) / RFU TMEM200A (11744735_a_at) / Fold change /veh TMEM200A (11744735_a_at) / RFU CCDC152 (11751479_a_at) / Fold change /veh CCDC152 (11751479_a_at) / RFU FAM211A (11726209_a_at) / Fold change /veh FAM211A (11726209_a_at) / RFU RGS16 (11746705_a_at) / Fold change /veh RGS16 (11746705_a_at) / RFU VCAN (11755009_s_at) / Fold change /veh VCAN (11755009_s_at) / RFU RHOB (11743442_s_at) / Fold change /veh RHOB (11743442_s_at) / RFU RGS16 (11720943_a_at) / Fold change /veh RGS16 (11720943_a_at) / RFU RGS16 (11720944_at) / Fold change /veh RGS16 (11720944_at) / RFU, VPS4B / Fold change vs veh, VPS4B / RFU, CREB1 / Fold change vs veh, CREB1 / RFU, DNAJC13 / Fold change vs veh, DNAJC13 / RFU, GNAQ / Fold change vs veh, GNAQ / RFU, CDK5R1 / Fold change vs veh, CDK5R1 / RFU, ZRANB3 / Fold change vs veh, ZRANB3 / RFU, CUL4A / Fold change vs veh, CUL4A / RFU, CCNY / Fold change vs veh, CCNY / RFU, UFL1 / Fold change vs veh, UFL1 / RFU, COG3 / Fold change vs veh, COG3 / RFU, DIAPH2 / Fold change vs veh, DIAPH2 / RFU, SKA2 / Fold change vs veh, SKA2 / RFU, AFF3 / Fold change vs veh, AFF3 / RFU, LMF1 / Fold change vs veh, LMF1 / RFU, IPO11 / Fold change vs veh, IPO11 / RFU, DFFB / Fold change vs veh, DFFB / RFU, FOXP1 / Fold change vs veh, FOXP1 / RFU, CARD8 / Fold change vs veh, CARD8 / RFU, STRN3 / Fold change vs veh, STRN3 / RFU, ADK / Fold change vs veh, ADK / RFU, RASSF2 / Fold change vs veh, RASSF2 / RFU, WIPF1 / Fold change vs veh, WIPF1 / RFU, LARP1B / Fold change vs veh, LARP1B / RFU, RASA1 / Fold change vs veh, RASA1 / RFU, RB1 / Fold change vs veh, RB1 / RFU, PPFIA1 / Fold change vs veh, PPFIA1 / RFU, MAT2A / Fold change vs veh, MAT2A / RFU, CCT5 / Fold change vs veh, CCT5 / RFU, WDR92 / Fold change vs veh, WDR92 / RFU, CUX1 / Fold change vs veh, CUX1 / RFU, TTC7A / Fold change vs veh, TTC7A / RFU, TMEM135 / Fold change vs veh, TMEM135 / RFU, DEPTOR / Fold change vs veh, DEPTOR / RFU, CPM / Fold change vs veh, CPM / RFU, DNAJB6 / Fold change vs veh, DNAJB6 / RFU, CACNA2D3 / Fold change vs veh, CACNA2D3 / RFU, DTX4 / Fold change vs veh, DTX4 / RFU, TFCP2 / Fold change vs veh, TFCP2 / RFU, GMCL1 /// GMCL1P1 / Fold change vs veh, GMCL1 /// GMCL1P1 / RFU, AEBP2 / Fold change vs veh, AEBP2 / RFU, SNHG1 /// SNORD22 /// SNORD25 /// SNORD26 /// SNORD27 /// SNORD28 /// SNORD29 /// SNORD31 / Fold change vs veh, SNHG1 /// SNORD22 /// SNORD25 /// SNORD26 /// SNORD27 /// SNORD28 /// SNORD29 /// SNORD31 / Fold change (Aza/veh), C12orf56 (ProbeSet 11735607_a_at) / Fold change (ACY-1035/veh), C12orf56 (ProbeSet 11735607_a_at) / Fold change (Aza/veh), FGFR1OP (ProbeSet 11751329_s_at) / Fold change (ACY-1035/veh), FGFR1OP (ProbeSet 11751329_s_at) / Fold change (Aza/veh), VPS36 (ProbeSet 11739960_a_at) / Fold change (ACY-1035/veh), VPS36 (ProbeSet 11739960_a_at) / RFU SYPL1 (11715823_x_at) / Fold change /veh SYPL1 (11715823_x_at) / RFU IGFBP7 (11715501_s_at) / Fold change /veh IGFBP7 (11715501_s_at) / RFU REEP3 (11722064_at) / Fold change /veh REEP3 (11722064_at) / RFU IGLL1 (11728026_x_at) / Fold change /veh IGLL1 (11728026_x_at): dose or concentration left out as unconfirmed
Settings: ProbeSet 11733176_x_at; LIST B

In the case of Nc1ccc(-c2cccs2)cc1NC(=O)c1ccc2c(c1)cc(C1CC1)n2CCN1CCOCC1 [ACY-1035], the “Fold change vs veh, ZNF507” value is reported as 0.90.
